In data set [1] the test system is Y397 phosphorylation of FAK. As to the kind of experiment: Western blotting with Y397 FAK antibody, BT474 cells. The class given is cell-based. The procedure:
(§1) Cell Viability Assay—The Cells were treated with peptides for 24 hours at different peptide concentrations. The 3-(4,5-dimethylthiazol-2-yl)-5-(3-carboxymethoxyphenyl)-2-(4-sulfophenyl)-2H-tetrazolium compound from Promega Viability kit (Madison, Ill.) was added, and the cells were incubated at 37° C. for 1-2 hours. The optical density on 96-plate was analyzed with a microplate reader at 490 nm to determine cell viability. In addition, cells were stained with trypan blue after 24 hours of treatment with Y15 and the percent of cells that stained positive were determined with a hemacytometer. Cell adhesion assay—The poly-L-Lysine or Collagen (5 μg/ml) coated 96-well plates were blocked with the blocking buffer (medium with 0.5% BSA) for 1 hour at 37 C. The cells were pre-treated with drugs for 3 hours and plated for adhesion at 4×10^5 cells. Cells were incubated at 37 C for 1 hour, fixed in 3.7% formaldehyde, washed in 0.1% BSA in PBS and stained with crystal violet (5 mg/ml in 2% ethanol) for 10 minutes. Then 2% SDS was added to the dried plated and OD at 590 nm was measured for detecting cell adhesion. Western Blotting—Cells or homogenized tumor samples were washed twice with cold 1×PBS and lysed on ice for 30 minutes in a buffer containing: 50 mM Tris-HCl (pH 7.5), 150 mM NaCl, 1% Triton-X, 0.5% NaDOC, 0.1% SDS, 5 mM EDTA, 50 mM NaF, 1 mM NaVO3, 10% glycerol and protease inhibitors: 10 μg/ml leupeptin, 10 μg/ml PMSF and 1 μg/ml aprotinin. The lysates were cleared by centrifugation at 10,000 rpm for 30 minutes at 4° C. Protein concentrations were determined using a Bio-Rad Kit. The boiled samples were loaded on Ready SDS-10% PAGE gels (Bio Rad, Inc) and used for Western blot analysis with the protein-specific antibody. Immunoblots were developed with chemiluminescence Renaissance reagent (NEN Life Science Products, Inc). Immunoprecipitation. Immunoprecipitation was performed according to the standard protocol. In brief, the pre-cleared lysates with equal amount of protein were incubated with 1 μg of primary antibody and 30 μl A/G agarose beads overnight at 4° C. The precipitates were washed with lysis buffer three times and re-suspended in 2× Laemmli buffer. The boiled samples were used for Western blotting, as described above. Detachment Assay—Cells were plated with and without inhibitors for 24 hours, and detached and attached cells were counted in a hemocytometer. We calculated the percent of detachment by dividing the number of detached cells by the total number of cells. The percent of detached cells was calculated in three independent experiments. Apoptosis Assay. Detached cells were collected and fixed in 3.7% formaldehyde in 1×PBS solution for the apoptosis assay. Detection of apoptosis was done with Hoechst 33342 staining. The percent of apoptotic cells was calculated as a ratio of apoptotic detached cells divided by the total number of cells in three independent experiments in several fields with the fluorescent microscope. For each experiment 300 cells per treatment were counted. In vitro Kinase Assay—10 μCi of [γ-^32P]-ATP in a kinase buffer (20 mM HEPES, pH 7.4, 5 mM MgCl2, 5 mM MnCl2, 0.1 mM Na3VO4 with 0.1 μg of purified FAK protein were incubated in a kinase buffer with 10 μCi of [γ-^32P]-ATP. The kinase reaction was performed for 5 minutes at room temperature and stopped by addition of 2× Laemmli buffer. Proteins were separated on a Ready SDS-10% PAGE gel, and the phosphorylated enolase was visualized by autoradiography. KinaseProfiler screening—Kinase specificity screening was performed with KinaseProfiler™ Service (Millipore) available on http://www.millipore.com/drugdiscovery/dd3/KinaseProfiler. The screening was performed with 1 μM Y15, 10 μM ATP and kinase substrates on 9 recombinant kinases according to Millipore protocol. Tumor Growth in Nude Mice—Female nude mice, 6 weeks old, were purchased from Harlan Laboratory. […]

The test system of a further data set is Panc-1 tumor cells. As to the kind of experiment: Panc-1 subcutaneous tumor growth in nude mice. It is filed as in vivo. Particulars: 30 mg/kg each, daily intraperitoneal. As to the method:
(§2) Cell Viability Assay—The Cells were treated with peptides for 24 hours at different peptide concentrations. The 3-(4,5-dimethylthiazol-2-yl)-5-(3-carboxymethoxyphenyl)-2-(4-sulfophenyl)-2H-tetrazolium compound from Promega Viability kit (Madison, Ill.) was added, and the cells were incubated at 37° C. for 1-2 hours. The optical density on 96-plate was analyzed with a microplate reader at 490 nm to determine cell viability. In addition, cells were stained with trypan blue after 24 hours of treatment with Y15 and the percent of cells that stained positive were determined with a hemacytometer. […] Then 2% SDS was added to the dried plated and OD at 590 nm was measured for detecting cell adhesion. […] Protein concentrations were determined using a Bio-Rad Kit. The boiled samples were loaded on Ready SDS-10% PAGE gels (Bio Rad, Inc) and used for Western blot analysis with the protein-specific antibody. […] Detachment Assay—Cells were plated with and without inhibitors for 24 hours, and detached and attached cells were counted in a hemocytometer. We calculated the percent of detachment by dividing the number of detached cells by the total number of cells. The percent of detached cells was calculated in three independent experiments. […] For each experiment 300 cells per treatment were counted. […]

A further data set relates to ERK1/2 phosphorylation. As to the kind of experiment: ERK1/2 phosphorylation in pancreatic cancer cells. It is filed as cell-based, human. As to conditions: dose dependent. As to the method:
as §2

For another data set, the system named is caspase-3. As to the kind of experiment: Caspase-3 immunohistochemistry of Panc-1 tumors. The class given is in vivo, mice. Particulars: 30 mg/kg, no significant increase. As to the method:
as §2

Data set [2] is described as follows: Tolerability in nude mice in tumor growth inhibition experiments. It is filed as in vivo. As to the method:
as §2

The next data set concerns BT474 cells. As to the kind of experiment: Apoptosis assay (Hoechst staining), BT474. The class given is cell-based. The procedure:
as §1, with “Western Blotting—Cells or homogenized tumor samples were washed twice with cold 1×PBS and lysed on ice for 30 minutes in a buffer containing: 50 mM Tris-HCl (pH 7.5), 150 mM NaCl, 1% Triton-X, 0.5% NaDOC, 0.1% SDS, 5 mM EDTA, 50 mM NaF, 1 mM NaVO3, 10% glycerol and protease inhibitors: 10 μg/ml leupeptin, 10 μg/ml PMSF and 1 μg/ml aprotinin. The lysates were cleared by centrifugation at 10,000 rpm for 30 minutes at 4° C.” left out, “Immunoblots were developed with chemiluminescence Renaissance reagent (NEN Life Science Products, Inc). Immunoprecipitation. Immunoprecipitation was performed according to the standard protocol. In brief, the pre-cleared lysates with equal amount of protein were incubated with 1 μg of primary antibody and 30 μl A/G agarose beads overnight at 4° C. The precipitates were washed with lysis buffer three times and re-suspended in 2× Laemmli buffer. The boiled samples were used for Western blotting, as described above.” left out, “Apoptosis Assay. Detached cells were collected and fixed in 3.7% formaldehyde in 1×PBS solution for the apoptosis assay. Detection of apoptosis was done with Hoechst 33342 staining.” left out, “http://www.millipore.com/drugdiscovery/dd3/KinaseProfiler.” for “http://www.millipore.com/drugdiscovery/dd3/KinaseProfiler. The screening was performed with 1 μM Y15, 10 μM ATP and kinase substrates on 9 recombinant kinases according to Millipore protocol. Tumor Growth in Nude Mice—Female nude mice, 6 weeks old, were purchased from Harlan Laboratory.”

The structures appear in SMILES notation.

For the compound `Cl.Cl.Cl.Cl.Nc1cc(N)c(N)cc1N` [Y15, 1,2,4,5-benzenetetraamine tetrahydrochloride], in data set [1] (100 μM), the “total FAK level” value is given as “down-regulates FAK” and the “treatment time enough to completely block Y397-phosphorylation” value is 8 h. In data set [1] (100 μM dose, 24 hours), the “inhibition of Y397 phosphorylation compared with TAE226” value is recorded as “same inhibition as TAE226”. In addition, the “Y397 phosphorylation after 4 hours” value in data set [1] (100 μM, 4 hours) is “did not significantly decreased Y397 phosphorylation”. Moreover, the “Y397 phosphorylation of FAK” value in data set [1] (100 μM, 24 hours) was “specifically inhibited Y397 phosphorylation of FAK”. In data set [1] (24 hours), the “dose with high inhibition of Y397 phosphorylation” value stood at 50 µM and the “dose with maximal inhibition of Y397 phosphorylation” value was 100 µM. Further, the tumor growth entry with Panc-1 tumor cells was “inhibited tumor growth even better than gemcitabine alone”. For the same compound, the p-ERK result in the data set with ERK1/2 phosphorylation was “down regulated”. In addition, the “apoptotic cells in tumors (caspase-3 staining)” value in the data set on caspase-3 is listed as 6%. Also, in data set [2] (IP, nude mice), the optimal non-toxic dose was 30 mg/kg. The “animal weight loss or death” value in data set [2] (intraperitoneal 30 mg/kg, 5 days/week, 36 days) was “No animal weight loss or death was observed”. The “apoptotic nuclei (Hoechst)” value in the data set with BT474 cells (200 μM) is reported as “No apoptotic nuclei were detected”. In addition, the apoptotic levels entry with BT474 cells (50-100 μM) is listed as “less than 6%”.

The record behind these values is patent US8314150B2, “Kinase protein binding inhibitors” (priority 2008, dated 2012).
